Data as given in US20260048062A1, “FUSED AMINO PYRIMIDINE COMPOUNDS FOR TREATMENT OF PSYCHOSIS AND PSYCHOTIC DISORDERS” (Ovid Therapeutics Inc., priority 2024, published 2026).

Assays:
hippocampus = experiment: Neuronal cell death in the hippocampus, Compound A with diazepam; format: in vivo; details: mice, Compound A and diazepam vs diazepam alone
KCC2-S940A = target: T1, KCC2-S940A (Homo sapiens, UniProt Q9H2X9, S963A); experiment: Tl+ flux assay, HEK-293 cells expressing KCC2-S940A; format: cell-based
T1 construct: expressed in transfected cells; host or cells: HEK-293
T1 sequence (Q9H2X9 1-1116 isoform Q9H2X9-2 S940A): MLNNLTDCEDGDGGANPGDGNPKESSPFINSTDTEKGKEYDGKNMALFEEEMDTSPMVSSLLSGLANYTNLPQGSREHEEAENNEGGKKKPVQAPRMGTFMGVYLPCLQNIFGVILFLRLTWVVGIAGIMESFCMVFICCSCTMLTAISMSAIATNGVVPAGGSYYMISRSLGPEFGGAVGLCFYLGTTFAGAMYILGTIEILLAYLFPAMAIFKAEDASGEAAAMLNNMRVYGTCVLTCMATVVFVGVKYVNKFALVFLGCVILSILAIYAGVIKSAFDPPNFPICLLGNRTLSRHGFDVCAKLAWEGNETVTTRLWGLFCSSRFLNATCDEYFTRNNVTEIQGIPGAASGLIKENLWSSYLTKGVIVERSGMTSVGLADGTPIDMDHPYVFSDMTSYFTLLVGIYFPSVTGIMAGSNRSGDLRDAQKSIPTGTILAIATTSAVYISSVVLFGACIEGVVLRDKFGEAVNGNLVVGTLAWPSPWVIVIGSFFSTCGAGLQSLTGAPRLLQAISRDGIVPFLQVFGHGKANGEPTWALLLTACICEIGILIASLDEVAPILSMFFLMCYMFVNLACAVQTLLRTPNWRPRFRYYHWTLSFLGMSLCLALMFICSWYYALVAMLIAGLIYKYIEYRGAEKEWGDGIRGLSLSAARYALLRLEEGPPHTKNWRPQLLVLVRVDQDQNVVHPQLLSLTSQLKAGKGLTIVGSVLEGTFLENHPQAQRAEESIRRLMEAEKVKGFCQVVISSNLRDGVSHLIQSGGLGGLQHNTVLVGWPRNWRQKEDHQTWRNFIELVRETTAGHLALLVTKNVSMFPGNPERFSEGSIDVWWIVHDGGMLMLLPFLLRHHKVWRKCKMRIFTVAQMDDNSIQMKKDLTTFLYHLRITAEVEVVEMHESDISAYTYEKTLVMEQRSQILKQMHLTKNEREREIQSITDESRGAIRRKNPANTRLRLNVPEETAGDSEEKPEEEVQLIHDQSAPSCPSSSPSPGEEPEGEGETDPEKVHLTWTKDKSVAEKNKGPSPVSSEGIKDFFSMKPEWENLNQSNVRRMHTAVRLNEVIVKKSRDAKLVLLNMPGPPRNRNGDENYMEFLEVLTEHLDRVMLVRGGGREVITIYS
Method: (§1) FLIPR TI Flux assay. HEK-293 cells were washed with HBSS, and then incubated with loading buffer containing TI sensitive fluorescent dye (https://www.moleculardevices.com), 20 μM bumetanide 20 μM ouabain and 2.5 mM probenecid for 1 h at room temperature (RT) under control conditions or with drugs in the dark using a FlexStation 3 microplate reader (Molecular Devices) and imaged […] for 30 min. Stimulus buffer was added containing 5 mM K^+/0.5 mM Tl^+ and cells were imaged every 1.5 over a 190 second time course The initial rate Tl^+ uptake (Relative Fluorescence Units (RFU) per second) was determined following addition of the stimulus buffer as outlined previously (Conway et al., 2017, supra) (Lee et al., 2022, supra).
(§2) Compared to KCC2, effects on KCC3, KCC4, and NKCC1 were only seen at concentrations more than 35-fold that of KCC2 (>100 μM) (FIG. 1G).

NKCC1 = target: T2, NKCC1 (Homo sapiens, UniProt P55011); experiment: Tl+ flux assay, HEK-293 cells expressing NKCC1; format: cell-based; details: read-out: concentration at which effects on NKCC1 were seen
T2 construct: expressed in transfected cells; host or cells: HEK-293
T2 sequence (P55011 1-1212): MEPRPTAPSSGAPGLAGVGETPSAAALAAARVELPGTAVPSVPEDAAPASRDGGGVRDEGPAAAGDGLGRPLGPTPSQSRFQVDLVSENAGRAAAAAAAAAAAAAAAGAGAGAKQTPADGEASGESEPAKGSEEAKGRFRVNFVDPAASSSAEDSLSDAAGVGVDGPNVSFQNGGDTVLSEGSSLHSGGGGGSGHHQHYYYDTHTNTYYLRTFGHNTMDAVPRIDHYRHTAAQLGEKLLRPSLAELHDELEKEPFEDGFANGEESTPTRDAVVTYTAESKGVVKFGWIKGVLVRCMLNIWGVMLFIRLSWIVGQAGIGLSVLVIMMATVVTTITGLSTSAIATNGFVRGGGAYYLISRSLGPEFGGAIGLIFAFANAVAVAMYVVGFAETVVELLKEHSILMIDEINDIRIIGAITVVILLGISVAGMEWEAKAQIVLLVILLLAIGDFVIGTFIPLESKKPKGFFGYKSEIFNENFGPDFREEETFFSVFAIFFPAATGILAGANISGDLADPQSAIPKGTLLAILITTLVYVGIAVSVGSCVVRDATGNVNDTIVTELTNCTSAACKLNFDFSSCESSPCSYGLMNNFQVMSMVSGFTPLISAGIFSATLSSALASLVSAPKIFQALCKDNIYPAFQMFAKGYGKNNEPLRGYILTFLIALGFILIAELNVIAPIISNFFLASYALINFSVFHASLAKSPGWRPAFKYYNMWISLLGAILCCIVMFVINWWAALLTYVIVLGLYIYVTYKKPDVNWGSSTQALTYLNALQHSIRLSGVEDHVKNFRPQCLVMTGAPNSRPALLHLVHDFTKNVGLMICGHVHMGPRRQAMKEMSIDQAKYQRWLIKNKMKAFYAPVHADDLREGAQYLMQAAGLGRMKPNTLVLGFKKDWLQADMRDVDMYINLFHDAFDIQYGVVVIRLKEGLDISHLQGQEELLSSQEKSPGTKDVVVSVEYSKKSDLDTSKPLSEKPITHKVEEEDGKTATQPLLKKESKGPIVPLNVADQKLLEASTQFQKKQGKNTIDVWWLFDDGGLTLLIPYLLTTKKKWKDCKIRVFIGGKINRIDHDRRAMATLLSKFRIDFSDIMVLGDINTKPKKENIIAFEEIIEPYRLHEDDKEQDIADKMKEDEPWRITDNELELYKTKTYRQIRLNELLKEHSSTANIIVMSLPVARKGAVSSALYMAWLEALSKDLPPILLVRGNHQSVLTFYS
Method: as §1, §2

SMILES: C[C@@H]1CN(c2nc3c(c(Nc4ccc(C5CCCCC5)cc4)n2)COC3)CCO1 [Compound A, (R)—N-(4-cyclohexylphenyl)-2-(2-methylmorpholino)-5,7-dihydrofuro[3,4-d]pyrimidin-4-amine]
- neuronal cell death in the hippocampus (hippocampus): significantly reduced
- activity of KCC2-S940A construct (KCC2-S940A): increased the activity
- EC50 (NKCC1): > 100 µM
